Assay results from patent US6844190B2, “St-B17 serotonin receptor” (The United States of America as represented by the …, priority 1992, dated 2005).
Like-named read-outs stand apart in the source and are kept apart here.

Tests used:
[1] = target: T1, St-B17 serotonin receptor (Rattus norvegicus, UniProt P31388, L57V); experiment: [125I]-LSD competition binding, Cos-7 cell membranes expressing St-B17; set-up: expressed in transfected cells; host or cells: Cos-7 cells, transient transfection, crude membranes; details: for affinity for St-B17 (in words): qualitative statement
T1 sequence (P31388 with tags, fused parts or gaps L57V): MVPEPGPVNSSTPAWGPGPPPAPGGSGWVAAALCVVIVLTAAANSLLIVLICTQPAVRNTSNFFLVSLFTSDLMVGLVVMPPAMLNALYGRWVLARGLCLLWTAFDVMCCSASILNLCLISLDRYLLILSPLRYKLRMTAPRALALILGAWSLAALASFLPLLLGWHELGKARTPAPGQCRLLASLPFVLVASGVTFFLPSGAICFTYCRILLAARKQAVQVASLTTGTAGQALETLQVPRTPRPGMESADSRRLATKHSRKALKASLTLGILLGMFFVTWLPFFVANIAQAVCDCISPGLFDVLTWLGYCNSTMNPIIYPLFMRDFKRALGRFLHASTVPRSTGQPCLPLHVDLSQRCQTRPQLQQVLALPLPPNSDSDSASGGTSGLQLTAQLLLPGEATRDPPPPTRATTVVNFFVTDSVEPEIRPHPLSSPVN
Protocol: (§1) This experiment was performed on Cos-7 cell membranes expressing the St-B17 serotonin receptor.

[2] = target: T2, St-B17 serotonin receptor (Rattus norvegicus, UniProt P31388); experiment: as above; details: read-out: Ki vs. [125I]-LSD, Mean ± SEM
T2 construct: expressed in transfected cells; host or cells: Cos-7 cells, transient transfection, crude membranes
T2 sequence (P31388 with tags, fused parts or gaps L57V): as above
Protocol: as §1

[3] = target: T1, St-B17 serotonin receptor; experiment: [3H]-5-HT competition binding, Cos-7 cell membranes expressing St-B17; set-up: expressed in transfected cells; host or cells: Cos-7 cells, transient transfection, crude membranes
[4] = target: T3, St-B17 stably expressed in HEK-293 cells (Rattus norvegicus, UniProt P31388, L57V); experiment: cAMP accumulation in intact HEK-293 cells stably expressing St-B17; format: cell-based
T3 construct: expressed in transfected cells
T3 sequence (P31388 with tags, fused parts or gaps L57V): as above
Protocol: Human Embryonic Kidney cells (HEK 293 available from the ATCC) were stably co-transfected in 150mm dishes by the CaPO4 technique with 30 μg of pSRα-B17 and 3 μg of pMam-neo (INVITROGEN). These HEK 293 cells were then subjected to selection with 600 μg/ml genetecin (G418) (GIBCO). The resistant colonies were collected and screened for receptor expression by [^125I]-LSD binding as described in Example 6.
Intracellular cAMP levels were determined after a 5 minute incubation of intact cells with various test compounds at 37° C. in the presence of the cAMP phosphodiesterase inhibitor RO-20-1724, using a modification of a previously described cAMP assay (Monsma, F. J., Jr., Barton, A. C., and Sibley, D. R. (1990) J. Neurochemistry 54, 1200-1207) wherein the adrenal cAMP binding protein was replaced with 0.8 mg/ml protein kinase A in water.

[5] = tested on: adenylyl cyclase activity in the NCB-20 neuroblastoma cell line; details: NCB-20 cells, literature; read-out: EC50, activation of adenylyl cyclase; cited from earlier work
[6] = target: T1, St-B17 serotonin receptor; experiment: Saturation analysis of [3H]-5-HT binding in transfected Cos-7 cells; set-up: expressed in transfected cells; host or cells: Cos-7 cells, transient transfection, crude membranes
Source text: The binding of [^3H]-5-HT was similarly not affected by the addition of guanine nucleotides.

[7] = target: T1, St-B17 serotonin receptor
[8] = Ki vs. [125I]-LSD, Mean ± SEM, 0.5 nM [125I]-LSD, Cos-7 membranes, n=3, Cheng-Prussoff from IC50
[9] = 0.5 nM [125I]-LSD, Cos-7 membranes, n=3, Cheng-Prussoff from IC50
[10] = 5 nM [3H]-5-HT, Cos-7 membranes, n=3, Cheng-Prussoff from IC50, read-out: Ki vs. [3H]-5-HT, Mean ± SEM
[11] = 10 μM final concentration, FIG. 5
[12] = read-out: Ki vs. [3H]-5-HT, Mean ± SEM
[13] = screened compounds, radioligand not restated, read-out: inhibition constant (Ki)
[14] = inhibition constant (Ki), screened compounds, radioligand not restated

c1ccc2c(N3CCNCC3)cccc2c1 [1(1-naphthyl)piperazine]
Ki [1, 8]: 104 ± 13.8 nM

CCN(CC)C(=O)[C@@H]1C=C2c3cccc4[nH]c(Br)c(c34)C[C@H]2N(C)C1 [2-Br-LSD]
Ki [2, 9]: 17.1 ± 1.11 nM

COc1ccccc1N1CCNCC1 [2-MPP]
Ki [2, 9]: 3050 ± 321 nM

NCCc1c[nH]c2ccc(OCc3ccccc3)cc12 [5-Benzyloxytryptamine]
Ki [1, 8]: 110 ± 17.9 nM

NCCc1c[nH]c2ccc(C(N)=O)cc12 [5-Carboxamidotryptamine]
Ki [3, 10]: 253 ± 20 nM
effect on cAMP levels on their own (in words) [4, 11]: elicit an increase in cAMP levels
Ki [2, 9]: 774 ± 84.4 nM

NCCc1c[nH]c2ccc(O)cc12 [5-HT, 5-hydroxytryptamine]
EC50 [5]: 300 nM
influence of guanine nucleotide analogue GppNHp on affinity ([1]; addition of GppNHp): not influenced
Hill coefficient for the competition curve ([1]; vs. [125I]-LSD): not significantly different from unity
EC50 [4]: 145 nM
Ki [2, 9]: 151 ± 12.8 nM

CNCCc1c[nH]c2ccc(O)cc12 [5-Hydroxy-N,ω-methyltryptamine]
Ki [2, 9]: 58 ± 8.32 nM

COc1ccc2[nH]cc(CCN)c2c1 [5-methoxytryptamine]
Ki [1, 8]: 38.9 ± 3.95 nM
effect on cAMP levels on their own (in words) [4, 11]: elicit an increase in cAMP levels

CCCN(CCC)C1CCc2cccc(O)c2C1 (centres unmarked) [8-OH-DPAT]
affinity for St-B17 (in words) [1]: relatively low affinity

CN(C)CCC=C1c2ccccc2CCc2ccccc21 [Amitriptyline]
Ki [3, 12]: 82 ± 6 nM
Ki [2, 9]: 69.6 ± 7.21 nM

Clc1ccc2c(c1)C(N1CCNCC1)=Nc1ccccc1O2 [Amoxipine]
effect on cAMP levels on their own (in words) [4, 11]: no significant effect on cAMP levels
effect on the cAMP response elicited by 5-HT (in words) [4, 11]: substantially inhibit the response elicited by 5-HT
functional classification at St-B17 receptor [4, 11]: antagonists
Ki [2, 9]: 30.4 ± 1.64 nM

COc1cc(N)c(Cl)cc1C(=O)NC1CCN2CCCC1C2 (centres unmarked) [BRL 24924]
Ki [1, 13]: > 10000 nM

CN1C2CCCC1CC(NC(=O)c1nn(C)c3ccccc13)C2 (centres unmarked) [BRL 43694A]
Ki [1, 13]: > 10000 nM

CN1CCN(c2nc3cc(C(F)(F)F)ccc3n3cccc23)CC1.O=C(O)/C=C\C(=O)O.O=C(O)/C=C\C(=O)O [CGS 12066B]
affinity for St-B17 (in words) [1]: relatively low affinity
Ki [2, 9]: 738 ± 66.6 nM

CC(C)C[C@H]1C(=O)N2CCC[C@H]2[C@]2(O)O[C@](NC(=O)[C@@H]3C[C@@H]4c5cccc6[nH]cc(c56)C[C@H]4N(C)C3)(C(C)C)C(=O)N12 [Dihydroergocryptine]
Ki [1, 8]: 161 ± 13.2 nM

CN1C[C@H](C(=O)N[C@]2(C)O[C@@]3(O)[C@@H]4CCCN4C(=O)[C@H](Cc4ccccc4)N3C2=O)C[C@@H]2c3cccc4[nH]cc(c34)C[C@H]21 [Dihydroergotamine]
Ki [3]: 5.4 ± 5.4 nM
Ki [1, 8]: 13.1 ± 0.9 nM
effect on cAMP levels on their own (in words) [4, 11]: stimulate cAMP accumulation
functional classification at St-B17 receptor [4, 11]: partial agonists

CN1[C@@H]2CC[C@H]1C[C@@H](OC(=O)c1c[nH]c3ccccc13)C2 [ICS 205,930]
affinity for St-B17 (in words) [1]: virtually no affinity

CN1C[C@H](CC#N)C[C@@H]2c3cccc4[nH]c(Cl)c(c34)C[C@H]21 [Lergotrile]
Ki [2]: 36.5 ± 1.04 nM

CN1CCN(C2=Nc3ccccc3Oc3ccc(Cl)cc32)CC1 [Loxapine]
Ki [3, 12]: 56 ± 1.5 nM
Ki [2, 9]: 64.75 ± 0.6 nM

CN1[C@@H]2CC[C@H]1C[C@@H](OC(=O)c1cc(Cl)cc(Cl)c1)C2 [MDL 72222]
affinity for St-B17 (in words) [1]: virtually no affinity
Ki [1, 13]: > 10000 nM

CN1C[C@@H](NS(=O)(=O)N(C)C)C[C@@H]2c3cccc4c3c(cn4C)C[C@H]21 [Mesulergine]
Ki [2, 9]: 1720 ± 248 nM

CN1C[C@H](CNC(=O)OCc2ccccc2)C[C@@H]2c3cccc4c3c(cn4C)C[C@H]21 [Metergoline]
Ki [3, 12]: 61 ± 23 nM
Ki [2, 9]: 30 ± 0.38 nM

CC[C@@H](CO)NC(=O)[C@@H]1C=C2c3cccc4c3c(cn4C)C[C@H]2N(C)C1 [MethyscrGide]
Ki [2, 9]: 372 ± 72.7 nM

COc1ccc2[nH]cc(CCN(C)C)c2c1 [N,N-Dimethyl-5-methoxytryptamine]
Ki [1, 8]: 79.8 ± 3.86 nM

COc1ccccc1N1CCN(CCCCN2C(=O)c3ccccc3C2=O)CC1 [NAN-190]
Ki [1, 14]: > 10000 nM

CNCCC=C1c2ccccc2CCc2ccccc21 [Nortriptyline]
Ki [2, 9]: 147 ± 2.61 nM

Nc1ccc(CCN2CCN(c3cccc(C(F)(F)F)c3)CC2)cc1 [PAPP]
Ki [2, 9]: 806 ± 75.2 nM

CCCN1C[C@H](CSC)C[C@@H]2c3cccc4[nH]cc(c34)C[C@H]21 [Pergolide]
affinity for St-B17 (in words) [1]: relatively high affinity
Ki [2, 9]: 29.9 ± 7.31 nM

Cc1nc2sccn2c(=O)c1CCN1CCC(=C(c2ccc(F)cc2)c2ccc(F)cc2)CC1 [Ritanerin]
Ki [3, 10]: 16 ± 2 nM
Ki [2, 9]: 44.1 ± 4.35 nM

FC(F)(F)c1cccc(N2CCNCC2)c1 [TFMPP]
Ki [1, 8]: 482 ± 37.2 nM

NCCc1c[nH]c2ccc(O)cc12 [[^3H]-5-HT]
Bmax ([6]; [3H]-5-HT saturation binding): 1-3 pMoles/mg protein
Kd ([6]; [3H]-5-HT saturation binding, n=3): 37 nM
effect of guanine nucleotides on binding ([6]; addition of guanine nucleotides): not affected

CCN(CC)C(=O)[C@@H]1C=C2c3cccc4[nH]c(I)c(c34)C[C@H]2N(C)C1 [[^125I]-LSD, lysergic acid diethylamide]
Kd ([7]; KD, representative experiment (FIG. 1, scatchard analysis), single representative experiment): 1.5 nM
Kd ([7]; dissociation constant (KD), [125I]-LSD saturation binding, Cos-7 membranes, mean n=3): 1.26 nM
maximum binding (Bmax) ([7]; range over experiments): 2-5 pMoles/mg protein
Bmax, representative experiment (FIG. 1) ([7]; single representative experiment): 3.4 pMoles mg protein^−1
affinity for St-B17 (in words) [1]: relatively high affinity

CN(C)CCCC1(c2ccc(F)cc2)OCc2cc(C#N)ccc21 (centres unmarked) [citalopram]
Ki [1, 14]: > 10000 nM

NCCc1ccc(O)c(O)c1 [dopamine]
Ki [1, 13]: > 10000 nM

CNC[C@H](O)c1ccc(O)c(O)c1 [epinephrine]
Ki [1, 13]: > 10000 nM

CCNC(C)Cc1cccc(C(F)(F)F)c1 (centres unmarked) [fenfluramine]
Ki [1, 14]: > 10000 nM

NCCc1c[nH]cn1 [histamine]
Ki [1, 13]: > 10000 nM

c1ccc2c(c1)OCC(C1=NCCN1)O2 (centres unmarked) [idazoxan]
Ki [1, 13]: > 10000 nM

O=C(c1ccc(F)cc1)C1CCN(CCn2c(=O)[nH]c3ccccc3c2=O)CC1 [ketanserin]
affinity for St-B17 (in words) [1]: relatively low affinity
Ki [1, 13]: > 10000 nM

Clc1cccc(N2CCNCC2)c1 [mCPP]
Ki [2, 9]: 2310 ± 343 nM

COc1ccc2[nH]cc(CCNC(C)=O)c2c1 [melatonin]
Ki [1, 13]: > 10000 nM

NC[C@H](O)c1ccc(O)c(O)c1 [norepinephrine]
Ki [1, 13]: > 10000 nM

NCC(O)c1ccc(O)cc1 (centres unmarked) [octopamine]
Ki [1, 13]: > 10000 nM

Fc1ccc([C@@H]2CCNC[C@H]2COc2ccc3c(c2)OCO3)cc1 [paroxetine]
Ki [1, 14]: > 10000 nM

CC(C)NCC(O)COc1cccc2[nH]ccc12 (centres unmarked) [pindolol]
Ki [1, 13]: > 10000 nM

O=C(CCCN1CCC2(CC1)C(=O)NCN2c1ccccc1)c1ccc(F)cc1 [spiroperidol]
Ki [1, 13]: > 10000 nM

NCCc1ccc(O)cc1 [tyramine]
Ki [1, 13]: > 10000 nM

COc1cc(N)c(Cl)cc1C(=O)NC1CN2CCC1CC2 (centres unmarked) [zacopride]
Ki [1, 13]: > 10000 nM

CN(C)C/C=C(/c1ccc(Br)cc1)c1cccnc1 [zimelidine]
Ki [1, 13]: > 10000 nM

N,ω-Methyltryptamine
Ki [2, 9]: 342 ± 32.2 nM
